{
  "source": "patent US20210352863A1",
  "about": "“METHOD FOR CONTROLLING WEED BEETS AND OTHER WEEDS” (KWS SAAT SE & Co. KGaA, priority 2018, published 2021)",
  "key": {"[1]": {"test_system": "sugar beet elite line T807 (mutagenized, M2 plants)", "experiment": "glyphosate treatment of surviving M2 plants of mutagenized sugar beet (screening and selection for resistance)", "type": "in vivo, Beta vulgaris (sugar beet)", "settings": "600 g/ha glyphosate acid equivalent", "text": "6 kg seeds of sugar beet elite line T807 (3BT1760, M0 population) were mutagenized with 0.5% EMS and 0.3% and 0.5%, respectively ENU, and subsequently drilled for steck production. Stecks were replanted for seed production occupying an area of 5.8 ha. M1 population sizes were 75,000 seed producing plants for EMS and 19,000 plants for ENU mutagenized seeds. The following M2 seed amounts (values given for purified seed) has been obtained: 240 kg for 0.5% EMS (idents A and B), 548 kg for 0.3% ENU (idents C and D), and 256 kg 0.5% ENU (idents E and F).\n176 kg of idents A and B and 75 kg of idents C, D, E and F were sown on an approximately 15 ha spanning field site. Approximately 1 month after sowing, the entire field was sprayed with 0.88 I/ha ROUNDUP® MAX (680 g/kg glyphosate acid equivalent). Approximately 6 weeks later, plants surviving the glyphosate treatment were collected in the field, transplanted to pots and further cultivated in the greenhouses. Surviving plants were treated with 600 g/ha glyphosate acid equivalent about 2 months later.\nIn order to identify the causative mutation behind the observed herbicide resistance sequencing analyses have been performed. Inter alia, the exon 2 of the epsp synthase gene in sugar beet was PCR amplified (primers BvEPSPS_Ex_2_for, 5′-[…]-3′ (SEQ ID NO: 13), and BvEPSPS_Ex_2_rev, 5′-[…]-3′ (SEQ ID NO: 14)) and Sanger sequenced (primers BvEPSPS_Ex2_Seqf, 5′-[…]-3′ (SEQ ID NO: 15), and BvEPSPS_Ex2_Seqr, 5′-[…]-3′ (SEQ ID NO: 16)) in all 172 surviving plants. The sugar beet plant with identifier 6MS1008-109 carried a C to T mutation that causes the P179S amino acid change in BvEPSPS. This artificial SNP has been independently confirmed by KASP marker assay using an in silico developed KASP-marker s1txepss02 (SEQ ID NOs: 17-19): […]"}, "[2]": {"settings": "acid form, at 25° C.; cited from earlier work"}},
  "data": [
    {"smiles": "O=C(O)CNCP(=O)(O)O", "note": "[glyphosate, N-phosphonomethylglycine]", "values": [
      {"measurement": "resistance conferred by heterozygous P179S mutation in BvEPSPS", "setting": "[1]; approx. 50% of standard field treatment level, strong indication from screening and selection", "result": "complete resistance"},
      {"measurement": "plants that survived the treatment", "setting": "[1]; potted greenhouse plants that had survived the field spray with ROUNDUP MAX", "result": 172, "unit": "plants"},
      {"measurement": "herbicide damage on surviving plants", "setting": "[1]; the 172 surviving plants in the greenhouse", "result": "without any signs of herbicide damage"},
      {"measurement": "solubility in water", "setting": "[2]", "result": 1.16, "unit": "% by weight"}
    ]}
  ]
}
